Test [1] deals with Patients with type 2 diabetes inadequately controlled by sulphonylurea and metformin. Kind of test: Lipoprotein subclass particle concentrations and average particle diameters by proton NMR spectroscopy, 1-year open-label trial (test meal study). In kind it is in vivo, human. The settings on record: change from baseline to endpoint (week 52), type 2 diabetes patients. Here is the method:
In the context of the present invention, lipoprotein concentrations are measured according to standard nuclear magnetic resonance techniques, where the measured amplitudes of characteristic lipid methyl group signals provide particle concentrations.
In the context of the present invention, lipoprotein subclass particle concentrations and average particle diameters are measured using proton nuclear magnetic resonance spectroscopy using the algorithm of LipoScience, Inc. See e.g., Festa et al., Nuclear Magnetic Resonance Lipoprotein Abnormalities in Prediabetic Subjects in the Insulin Resistance Artherosclerosis Study, Circulation, 111:3465-3472 (2005). […]
Lipoprotein subclass particle concentrations and average particle diameters are measured using proton nuclear magnetic resonance spectroscopy. See e.g., Festa et at., Nuclear Magnetic Resonance Lipoprotein Abnormalities in Prediabetic Subjects in the Insulin Resistance Artherosclerosis Study, Circulation, 111:3465-3472 (2005).
The particle concentrations of different lipoprotein subclasses are obtained by measuring the amplitudes of the characteristic lipid methyl NMR signals. The signal amplitudes of various subclasses are extracted from the overall lipid methyl group signal with a spectral deconvolution algorithm (Lipo Science, Inc.). See e.g., Festa. VLDL and LDL particle concentrations are given in nanomoles per liter. HDL particle concentrations are provided in micromoles per liter.
Average particle sizes (in nanometers diameter) are computed as the sum of the diameter of the particle subclass multiplied by the relative mass percentage of the subclass as estimated from the amplitude of its methyl NMR signal.
Particle concentrations and sizes are compared before and after administration of an exendin or exendin agonist. See e.g., Table 1.

For test [2] the test system is unchanged. Kind of test: Fibrinogen concentration by the von Clauss clotting method. In kind it is in vivo, human. Conditions: type 2 diabetes patients. Here is the method: For test meal data, postprandial glucose incremental AUC0-4h is calculated at baseline and week 52.
Fibrinogen activity is measured by the von Clauss clotting method. By the von Clauss clotting method, thrombin is added to a test sample and the time until clotting is measured. Fibrinogen concentration is determined by comparing clotting time for the test sample to the clotting time of a standard curve for various reference plasmas.
Fibrinogen is measured at baseline, Week 16, Week 52, or at early termination of the study.

This note sets out measurements from patent US20090209469A1, “Use of Exendins and GLP-1 Receptor Agonists for Altering Lipoprotein Particle Size and Subclass Composition” (priority 2006, published 2009).

Consider biphasic insulin aspart 30/70, for which, in test [1], the “HDL Particle Size, Δ mean” value is on record as “+0.04 nm” and the “VLDL Particle Size, Δ mean” value is recorded as −1.6 nm. The “LDL Particle Size, Δ mean” value in test [1] (exenatide 5 μg BID 4 weeks then 10 μg BID 48 weeks vs biphasic insulin aspart 30/70) is given as “+0.11 nm”. In test [1] (particle concentration), the “Large HDL, Δ mean” value is listed as “+1.0 μmol/L”; the “Large LDL, Δ mean” value is given as “+37.7 nmol/L”; the “Small LDL, Δ mean” value is -25.8 nmol/L; the “Small VLDL, Δ mean” value is on record as “+8.5 nmol/L”. Moreover, in test [1] (particle concentration), the “Total HDL, Δ mean” value was “+2.5 μmol/L”; the “Total LDL, Δ mean” value is recorded as “+5.0 nmol/L”; the “Total VLDL, Δ mean” value is “+12.9 nmol/L”; the “Very Small LDL, Δ mean” value was -17.0 nmol/L. Further, the “Fibrinogen level, mean, Baseline” value in test [2] (baseline, before treatment) is on record as 4.22 g/L. In test [2] (endpoint, last post-baseline measurement carried forward (Week 16, Week 52 or early termination)), the “Fibrinogen level, mean, Endpoint (LOCF)” value is 4.16 g/L.
